Experimental data published in ChEMBL document CHEMBL1132523, “Preventive effect of sesquiterpenes from bay leaf on blood ethanol elevation in ethanol-loaded rat: structure requirement and suppression of gastric emptying” (1999).
“And” between values parts separate entries of the source, which are not always exact repeats. Equal values may be shown once.

How the values were obtained:
Rattus norvegicus [1] = assay: Effect of compound (25 mg/kg) on Blood Ethanol level in Ethanol loaded rats after 2 hr; type: functional
Rattus norvegicus [2] = assay: Effect of compound (25 mg/kg) on Blood Ethanol level in Ethanol loaded rats after 30 minutes; type: functional
Rattus norvegicus [3] = assay: Effect of compound (50 mg/kg) on Blood Ethanol level in Ethanol loaded rats after 2 hr; type: functional
Rattus norvegicus [4] = assay: Effect of compound (25 mg/kg) on Blood Ethanol level in Ethanol loaded rats after 1 hr; type: functional
Rattus norvegicus [5] = assay: Effect of compound (50 mg/kg) on Blood Ethanol level in Ethanol loaded rats after 30 minutes; type: functional
Rattus norvegicus [6] = assay: Effect of compound (50 mg/kg) on Blood Ethanol level in Ethanol loaded rats after 1 hr; type: functional
Rattus norvegicus [7] = assay: Effect of compound (25 mg/kg) on Gastric emptying in Ethanol loaded rats after 30 minutes; type: functional, Stomach
Rattus norvegicus [8] = assay: Effect of compound (25 mg/kg) on Gastric emptying time in Ethanol loaded rats after 30 minutes; type: functional, Stomach
Rattus norvegicus [9] = assay: Effect of compound (25 mg/kg) on Serum glucose level in glucose loaded rats after 1 hr; type: functional, organism-based
Rattus norvegicus [10] = assay: Effect of compound (50 mg/kg) on Serum glucose level in glucose loaded rats after 1 hr; type: functional, organism-based
Rattus norvegicus [11] = assay: Effect of compound (50 mg/kg) on Serum glucose level in glucose loaded rats after 2 hr; type: functional, organism-based
Rattus norvegicus [12] = assay: Effect of compound (25 mg/kg) on Serum glucose level in glucose loaded rats after 2 hr; type: functional, organism-based
Rattus norvegicus [13] = assay: Effect of compound (50 mg/kg) on Gastric emptying time in Ethanol loaded rats after 30 minutes; type: functional, Stomach
Rattus norvegicus [14] = assay: Effect of compound (25 mg/kg) on Serum glucose level in glucose loaded rats after 30 minutes; type: functional, organism-based
Rattus norvegicus [15] = assay: Effect of compound (50 mg/kg) on Gastric emptying in Ethanol loaded rats after 30 minutes; type: functional, Stomach
Rattus norvegicus [16] = assay: Effect of compound (50 mg/kg) on Serum glucose level in glucose loaded rats after 30 minutes; type: functional, organism-based
Rattus norvegicus [17] = assay: Effect of compound (12.5 mg/kg) on Blood Ethanol level in Ethanol loaded rats after 2 hr; type: functional
Rattus norvegicus [18] = assay: Effect of compound (12.5 mg/kg) on Blood Ethanol level in Ethanol loaded rats after 30 minutes; type: functional
Rattus norvegicus [19] = assay: Effect of compound (12.5 mg/kg) on Blood Ethanol level in Ethanol loaded rats after 1 hr; type: functional
Rattus norvegicus [20] = assay: Effect of compound (12.5 mg/kg) on Gastric emptying in Ethanol loaded rats after 30 minutes; type: functional, Stomach

SMILES	Activity (Rattus norvegicus [1]) [mg/mL]	Blood ethanol concentration (Rattus norvegicus [2]) [mg/mL]	Blood ethanol level (Rattus norvegicus [3]) [mg/mL]	Activity (Rattus norvegicus [4]) [mg/mL]	Blood ethanol concentration (Rattus norvegicus [5]) [mg/mL]	Activity (Rattus norvegicus [6]) [mg/mL]	Inhibition (Rattus norvegicus [7])	Inhibition (Rattus norvegicus [8]) [%]	Serum glucose (Rattus norvegicus [9]) [mg/dL]	Serum glucose (Rattus norvegicus [10]) [mg/dL]	Serum glucose (Rattus norvegicus [11]) [mg/dL]	Serum glucose (Rattus norvegicus [12]) [mg/dL]	Inhibition (Rattus norvegicus [13]) [%]	Serum glucose (Rattus norvegicus [14]) [mg/dL]	Inhibition (Rattus norvegicus [15]) [%]	Serum glucose (Rattus norvegicus [16]) [mg/dL]	Activity (Rattus norvegicus [17]) [mg/mL]	Activity (Rattus norvegicus [18]) [mg/mL]	Activity (Rattus norvegicus [19]) [mg/mL]	Inhibition (Rattus norvegicus [20])
C=C1CCC[C@]2(C)CC[C@@H](C(C)(C)O)C[C@@H]12 [BETA-EUDESMOL]	0.2	0.79	0.2	0.7	0.77	0.73														
C=C1C(=O)O[C@@H]2/C=C(\C)CC/C=C(\C)CC[C@@H]12 [COSTUNOLIDE]	0.1	0.23	0.19	0.2	0.18	0.21	62.1%	25.5	151	150	112	117	42.1	179	48.2	171				
C=C1CC[C@H]2C(=C)CC[C@H]3C(=C)C(=O)O[C@@H]3[C@@H]12 [DEHYDROCOSTUSLACTONE]	0.2	0.57	0.19	0.4	0.2	0.23														
C=C1C(=O)O[C@@H]2[C@H]3C(C)=CC[C@@H](O)[C@]3(C)CC[C@@H]12 [SANTAMARIN]	0.2	0.4	0.18	0.43	0.2	0.21														
C=C1CCOC1=O [TULIPALINE A]	0.01	0.09	0.01	0.17	0.04	0.1	33.5% and 57.2%										0.39	0.32	0.7	47.9% and 38.8%
